Marks after values point to notes of the source that are not given here.
Assays:
Assay type in all cases: in vivo, rat
[1] = system: MIA-induced osteoarthritis in Sprague-Dawley rats; assay: Histopathology of femorotibial joint, modified Mankin score, MIA-induced OA model
Procedure: Treatment started a week before MIA injection. […] The standardized blends for each treatment groups are defined as UP446=1A:4S, UP1306=1A:2M and the composition at the given dosage=0.282A:0.308S:0.410M where “A”, “S” and “M” stands for acacia, scutellaria and moms, respectively. On the induction day, isoflurane (Lot #B66H15A, Piramal Enterprise Ltd. Andhra Pradesh, India) anesthetized rats were injected with 0.8 mg of MIA (Lot #A0352046, Acros Organics, New Jersey, USA) in 50 μL saline solution into the intra-articular pocket of left femorotibial (knee) joint using 26 G needle an hour after treatment. Normal control rats were injected with an equal volume of saline. […] Body weights were measured once a week to calculate the respective weekly dosage of each group. The merit of combining UP1306 and UP446 was then evaluated using the Colby's equation (Colby, 1967). Pain sensitivity percent inhibition values were used to determine the calculated efficacy values and compared to the observed percent inhibition values of the composition.
At necropsy, animals were asphyxiated with CO2 and the femorotibial joint was carefully dissected out, fixed in 10% buffered formalin and sent to Nationwide Histology (Veradale, WA, USA) for further histopathology analysis. The fixed specimens were then decalcified with Calci-Clear Rapid for 1 and a half days and embedded in paraffin. Standardized 5 μm serial sections were obtained at the medial and lateral midcondylar level in the sagittal plane and were stained with hematoxylin and eosin (HE) and Safranin O-fast green to enable evaluation of proteoglycan content. A modified Mankin system (Mankin et al., 1981) was used to score structural and cellular alterations of articular components as indications of disease progression and/or treatment efficacy. The histological analysis was conducted by a certified Pathologist at Nationwide Histology.

[2] = system: MIA-induced osteoarthritis in Sprague-Dawley rats; assay: Bone histomorphometry (Micro CT) in therapeutic MIA induced osteoarthritis model
Procedure: Male Sprague-Dawley (SD) rats weighing 170˜230 g (6 weeks of age) were purchased and acclimated for one week. […] Anesthetized rats were injected with 0.8 mg of MIA in 50 μl saline solution into the intra-articular pocket. One week after MIA induction, samples were administrated daily with gastric tube for 6 weeks. Bone histomorphometry was evaluated on both femur and tibia per knee joint in rats from the MIA-induced osteoarthritis model by Micro CT scan using an Inveon™ unit (Siemens Healthcare USA, Inc., Pennsylvania, USA) at Korea Basic science institute, Ochang, Korea. BMD was used as an indicator of osteoporosis and fracture risk; BV/TV as an indicator of trabecular bone volume refers to the ratio of the trabecular bone volume to the total volume; BS/BV as an indicator of trabecular turnover refers to the ratio of the trabecular bone surface to the trabecular bone volume of a region of interest.

[3] = system: MIA-induced osteoarthritis in Sprague-Dawley rats; assay: Pain sensitivity (paw withdrawal / compression threshold, Randall-Salitto) in MIA-induced OA model; settings: Diclofenac 10, UP1306 400, UP446 250, Composition 650 mg/kg; for Compression threshold (Mean ± SD): oral
Procedure: Animals were provided with fresh water and rodent chow diet # T2018 (Harlan Teklad, 370W, Kent, WA, USA) ad libitum and were housed in a temperature-controlled room (22.2° C.) on a 12 h light-dark cycle.

[4] = system: urine CTX-II (C-telopeptide of type II collagen); assay: Urine CTX-II ELISA in MIA-induced OA model
Procedure: Treatment started a week before MIA injection. […] On the induction day, isoflurane (Lot #[…] Enterprise Ltd. […], India) anesthetized rats were injected with 0.8 mg of MIA (Lot #A0352046, Acros Organics, New Jersey, USA) in 50 μL saline solution into the intra-articular pocket of left femorotibial (knee) joint using 26 G needle an hour after treatment. Normal control rats were injected with an equal volume of saline. […] Body weights were measured once a week to calculate the respective weekly dosage of each group. The merit of combining UP1306 and UP446 was then evaluated using the Colby's equation (Colby, 1967). Pain sensitivity percent inhibition values were used to determine the calculated efficacy values and compared to the observed percent inhibition values of the composition. CTX-II ELISA was performed according to the kit manufacturer's specifications. […] Rat urine samples were thawed on ice and diluted 1:3 with Sample Diluent. 100 μL of samples and standards were added to a 96-well plate pre-coated with CTX-II antibody. The plate was covered and incubated at 37° C. for 2 hours. The liquid was aspirated from each well, then 100 μL of Detection Reagent A working solution was added to each well. The plate was covered and incubated at 37° C. for 1 hour. The solution was aspirated from each well and the plate was washed three times with 1× Wash Buffer. 100 μL of Detection Reagent B working solution was added to each well, then the plate was covered and incubated at 37° C. for 1 hour. The solution was aspirated from each well and the plate was washed five times with 1× Wash Buffer. 90 μL of Substrate Solution was added to each well, then the plate was covered and incubated at 37° C. for 30 minutes. […] Stop Solution was added to each well, and the optical density at 450 nm was detected using a Tecan Genios plate reader. CTX-II concentrations for each sample were determined by multiplying by the dilution factor and fitting the value to the standard curve. To offset the variations in urine flow between rats, values were normalized to total urine protein.

[5] = MIA 0.8 mg/joint, Diclofenac 10, UP1306 400, UP446 250, Composition 650 mg/kg
[6] = treatment from one week after MIA, daily 6 weeks, Diclofenac 10 mg/kg, GM 500 mg/kg, mean ± SD
[7] = MIA-induced OA rats, urine, week 5 of daily oral treatment

For `O=C(O)Cc1ccccc1Nc1c(Cl)cccc1Cl` [Diclofenac], the “reduction in overall structural abnormality” value ([1]; AM 400, UP446 250, AU 650, Diclofenac 10 mg/kg) was 51.4%, the “reduction in matrix GAG loss (Safranin O)” value ([1]; Diclofenac 10, AM 400, UP446 250, AU 650 mg/kg) was 46.0% and the “Bone at Articular surfaces (modified Mankin score 0-6)” value [1, 5] was 0.70 ± 0.24. The “Fibrovascular proliferation (modified Mankin score 0-6)” value [1, 5] was 1.55 ± 0.69, the “Inflammation/ Cellular infiltration (modified Mankin score 0-6)” value [1, 5] was 0.55 ± 0.15 and the “Matrix GAGs (modified Mankin score 0-6)” value [1, 5] was 1.44 ± 0.38. The “Structural abnormality (modified Mankin score 0-6)” value [1, 5] was 1.23 ± 0.36, the “BV/TV compared with vehicle group” value ([2]; therapeutic MIA model) was “decreasing tendency” and the “BMD (mg/cm3)” value [2, 6] was 896.2 ± 29.4 mg/cm3. The BS/BV [2, 6] was 9.11 ± 1.41, the “BV/TV (%)” value [2, 6] was 65.35 ± 7.75% and the “Percent change of vehicle, Pain sensitivity inhibition” value ([3]; Baseline) was 0.9%. For the same compound, the “Compression threshold (Mean ± SD)” value ([3]; Baseline) was 244.1 ± 3.8, the “Percent change of vehicle, Pain sensitivity inhibition” value ([3]; Week-1) was 40.4* % and the “Compression threshold (Mean ± SD)” value ([3]; Week-1) was 190.8 ± 1.1. The “Percent change of vehicle, Pain sensitivity inhibition” value ([3]; Week-2) was 28.8* %, the “Compression threshold (Mean ± SD)” value ([3]; Week-2) was 171.8 ± 0.6 and the “Percent change of vehicle, Pain sensitivity inhibition” value ([3]; Week-3) was 31.2* %. For the same compound, the “Compression threshold (Mean ± SD)” value ([3]; Week-3) was 170.1 ± 2.2, the “Percent change of vehicle, Pain sensitivity inhibition” value ([3]; Week-4) was 30.8* % and the “Compression threshold (Mean ± SD)” value ([3]; Week-4) was 171.6 ± 0.6. The “Percent change of vehicle, Pain sensitivity inhibition” value ([3]; Week-5) was 31.0* %, the “Compression threshold (Mean ± SD)” value ([3]; Week-5) was 170.9 ± 1.1 and the “Ratio (CTX-II/Protein), uCTX-II normalized to total protein” value [4, 7] was 64.41. The “uCTX-II (Mean ± SD)” value [4, 7] was 304 ± 233 ng/L and the “reduction in urine CTX-II” value ([4]; after 5 weeks of daily oral treatment, diclofenac 10, UP1306+UP446 650, UP1306 400, UP446 250 mg/kg) was 31.33%.

From patent US12042523B2, “Compositions and methods for managing or improving bone disorders, joint disorders, cartilage disorders, or a combination thereof” (Unigen, Inc., priority 2014, dated 2024)
